Here are results for one molecule from patent US20240050426A1, “TREATING VIRAL INFECTION WITH NMD INHIBITORS” (The Cleveland Clinic Foundation, priority 2021, published 2024).

Data set [1] deals with BJAB cells. As to the kind of experiment: Cytotoxicity assessment, flow cytometry with 7-AAD and FITC-Annexin V. The class given is cell-based. Particulars: virus-negative BJAB cells, NMDI-1 between 5 and 50 μM, 48 h. As to the method:
(§1) FIG. 11. Cytotoxicity assessment of NMDI-1 treatment. (A, B) Flow cytometry analysis of virus-negative Burkitt lymphoma BJAB (A) or AGS (B) cells treated with 5 to 100 μM NMDI-1 or DMSO (‘0 μM’ NMDI-1) for 48 h and stained with 7-AAD and FITC-Annexin V. Data are presented as mean percentage of live (orange, Annexin V^−/7-AAD^−), apoptotic (blue, […]), and necrotic (red, Annexin V^+/7-AAD^+) cells for three biological replicates. 1 μM staurosporine treatment served as positive control for apoptosis/necrosis induction.
(§2) AGS-EBV and HEK293T.rKSHV219 cells were seeded into 12-well plates and transfected with UPF1-specific or non-targeting control siRNAs for 24 to 120 h as indicated. As a positive control for reactivation, cells were treated with 2.5 mM NaB for 24 h. For microscopy, cells were incubated with Hoechst nucleic acid stain (1:2000, Invitrogen) in PBS for 5 min at RT, after which DAPI, as well as GFP or RFP were imaged using a fluorescence microscope (Omano). For flow cytometry analysis of GFP and RFP expression, cells were fixed in 4% paraformaldehyde in PBS and analyzed on an LSRFortessa (BD Biosciences). […] Data were analyzed using the Flowjo software (BD Biosciences).

For data set [2] the following is noted: concentrations below those used in this study (25 μM); cited from earlier work.
Data set [3] has as its system KSHV. As to the kind of experiment: KSHV reactivation: qRT-PCR of KSHV lytic transcripts after NMDI-1 treatment. The format is cell-based. Particulars: 25 μM NMDI-1, 24 to 120 h. Here is the method:
(§3) FIG. 4. Small-molecule NMD inhibitor NMDI-1 is a potent inducer of EBV and KSHV reactivation. (A-C) qRT-PCR analysis of EBV BZLF1, BRLF1, BMRF1, BLLF1b, and/or BcLF1 transcripts in EBV^+ AKBM (A), AGS-EBV (B), or LCL (C) cells treated with 25 μM NMDI-1 for 12 to 120 h, presented as fold expression relative to Mock-treated samples. (D-G) qRT-PCR analysis of Orf26, Orf50, Orf57, or Orf74 transcripts in KSHV^+ iSLK.rKSHV219 (D), HEK293T.rKSHV219 (E), BC3 (F), and BCBL1 (G) cells treated with 25 μM NMDI-1 for 24 to 120 h, presented as fold expression relative to Mock-treated samples. Data are representative of at least two (A, C) or three (B, D, E, F, G) independent experiments and presented as mean±SD of three biological replicates; ns, p>0.05, * p≤0.05, ** p≤0.01, *** p≤0.001.
(§4) Total RNA was extracted from cells using the E.Z.N.A. HP Total RNA Isolation Kit (OMEGA Bio-Tek) according to the manufacturer's instructions. Reverse transcription and qRT—PCR were performed using equal amounts (50-500 ng) of the purified RNA and the SuperScript III Platinum One-Step qRT-PCR kit with ROX (Invitrogen) on a 7500 Fast Real-Time PCR Machine (Applied Biosystems). Premixed master mixes of TaqMan primers and probes for the detection of human transcripts were purchased from Applied Biosystems (18S) or IDT (GAPDH, UPF1, UPF2, UPF3a, UPF3b, SMG1, SMG5, SMG6, SMG7, STAU1, STAU2, GADD45B, PDRG1, RPL32, HPRT1, MAP3K14). […] Abundance of target genes was calculated by normalizing for cellular 18S or GAPDH using the Comparative CT (ΔΔCt) method. […]
(In general: In qPCR the cycle at which signal appears reflects the starting amount.)

Data set [4] relates to EBV. As to the kind of experiment: EBV reactivation: qRT-PCR of EBV lytic gene expression after NMDI-1 treatment. The format is cell-based. Particulars: 25 μM NMDI-1, qRT-PCR, relative to Mock. As to the method:
as §3, §4

The subject of data set [5] is AGS cells. As to the kind of experiment: Cytotoxicity assessment, flow cytometry with 7-AAD and FITC-Annexin V. The class given is cell-based, human. Particulars: NMDI-1 between 5 and 50 μM, 48 h. As to the method: as §1, §2
(In general: In flow cytometry, cells or beads pass a laser one at a time.)

Data set [6] concerns EBV transcripts in AGS-EBV cells. Briefly: qRT-PCR of EBV transcript abundance in TPA-treated AGS-EBV cells with or without NMDI-1. The format is cell-based. The note with it: 5 ng/mL TPA, 25 μM NMDI-1, 24 h. From the text: FIG. 3. NMD controls the abundance of the polycistronic EBV transactivator transcripts and Rta protein expression. (A) Schematic of the EBV transactivator locus and the three transcripts expressed from this locus. Dashed lines mark spliced introns; CDS, coding sequence; Rp, EBV BRLF1 promoter; Zp, EBV BZLF1 promoter; pA, 3′-polyadenylation site; green bar, location of the Northern blotting probe used in F and I. (B) qRT-PCR analysis of BRLF1 transcripts in HEK293T cells transfected with 0, 20, 40, or 60 nM UPF1-targeting siRNA for 24 h, followed by transfection of a plasmid encoding the complete EBV transactivator locus (left panel, orange) or the BRLF1 coding sequence (CDS) only (right panel, blue), together with pcDNA3-nlsGFP (internal control) for 48 h. Data was normalized to GFP transcript levels to control for differences in transfection efficiency and presented as fold abundance relative to cells without si.UPF1 (−). (C) qRT-PCR analysis of BZLF1 transcripts in HEK293T cells transfected with increasing amounts of si.UPF1 for 24 has in (B), followed by transfection for 48 h with a plasmid encoding the EBV BZLF1 locus (left panel, orange) or the BZLF1 CDS (right panel, blue), together with pcDNA3-nlsGFP (internal control). […] See 10E Fig for quantification of effects. […] See S6F Fig for quantification of effects. […] See S6G Fig for quantification of effects. […]

Each structure is given as a SMILES string.

With `Cc1c2ccnc(Cl)c2c(C)c2c1[nH]c1ncccc12` [NMDI-1], the cell viability entry in data set [1] and in data set [5] was “did not or only minimally affect cell viability” throughout. Further, the “toxicity in in vivo studies” value in data set [2] is “without apparent toxicity”. The “KSHV lytic transcripts Orf50, Orf26, Orf57 and/or Orf74” value in data set [3] (KSHV+ BC3 PEL cells), in data set [3] (KSHV+ BCBL1 PEL cells), in data set [3] (KSHV+ HEK293T.rKSHV219 cells) and in data set [3] (KSHV+ iSLK.rKSHV219 cells) was “induced potent expression of the KSHV lytic transcripts” in each case. Besides, the “EBV lytic gene expression” value in data set [4] (AGS-EBV cells) and in data set [4] (EBV-transformed LCL cells from healthy-donor primary B cells) was “potent induction of lytic gene expression” each time. In addition, the “EBV lytic gene expression (BZLF1, BMRF1, BLLF1, BcLF1)” value in data set [4] (EBV+ AKBM cells) is “striking induction of EBV lytic gene expression”. Further, the “BRLF1 transcript abundance compared to the mock-treated control” value in data set [6] was “significant increase in BRLF1 transcript abundance”. The “levels of other EBV transcripts (BNRF1, BcLF1, BLLF1)” value in data set [6] is “not significantly affected”.
